Measurements taken from EPA's ToxValDB 9.5.

Tested on: Rattus norvegicus
Settings: oral
[1] = short-term, duration: 28 days, gavage, M, Sprague-Dawley, Clinical Observation: Diarrhea + Body Weight Changes: decrease + Food Consumption: decrease + Urinalysis: Color, Brown + Hematology: RET …
[2] = short-term, duration: 28 days, gavage, F, Sprague-Dawley, Food Consumption: decrease + Hematology: RBC decrease, Hct decrease1000 Hgb decrease1000 Plt increase, PT increase, APTT increase, Ret …
[3] = short-term, duration: 28 days, gavage, M, Sprague-Dawley, Food Consumption: decrease + Hematology: RBC decrease, Hct decrease1000 Hgb decrease1000 Plt increase, PT increase, APTT increase, Ret …
[4] = subchronic, gavage, M, Sprague-Dawley, Clinical Observation: Salivation + Urinalysis: Tubular epithelial cell in sediment + Hematology: PT increase, APTT increase + Blood …
[5] = subchronic, gavage, M, Sprague-Dawley, Deaths + Clinical Observation: Salivation + Body Weight Changes: Body weight gain decrease + Food Consumption: decrease + Urinalysis: Brown …
[6] = short-term, duration: 28 days, gavage, M, Sprague-Dawley, Clinical Observation: Locomotor activity decrease, Respiratory rate decrease, Incomplete eyelid opening + Blood Chemistry: TG decrease + …
[7] = chronic, duration: 17 weeks, gavage, F, Ash/CSE, Body Weight Changes: decrease
[8] = chronic, duration: 17 weeks, gavage, M, Ash/CSE, Body Weight Changes: decrease
[9] = subchronic, gavage, M, Sprague-Dawley, Clinical Observation: Salivation + Body Weight Changes: Body weight gain decrease + Food Consumption: decrease + Water Consumption: increase…
[10] = subchronic, gavage, M, Sprague-Dawley, Clinical Observation: Salivation (transient) + Functional Observational Battery: Salivation (transient)Defecation increase(transient) + …

Compound `O=C1c2ccccc2C(=O)c2ccccc21` [Anthraquinone] has an NOAEL [1] of under 200 mg/kg-day and an NOEL [1] of under 200 mg/kg-day.
For `COC(=O)C1=C(C)NC(C)=C(C(=O)OCC(C)=O)C1c1ccccc1[N+](=O)[O-]` (stereo not given) [Aranidipine], the NOEL (chronic, duration: 91 days, gavage, M/F, Wistar, Deaths + Clinical Observation: Prone position.0 (Dead animal) Hypothermia.0 (Dead animal) Rough respiration Locomotor activity decrease …) was 3 mg/kg-day.
With `O=C1c2ccccc2-c2cccc3cccc1c23` [Benz[de]anthracen-7-one] the LOAEL [2] was 60 mg/kg-day, the LOEL [2] was 60 mg/kg-day and the NOAEL [2] was 15 mg/kg-day. For the same compound, the NOEL [2] was 15 mg/kg-day, the LOAEL [3] was 60 mg/kg-day and the LOEL [3] was 60 mg/kg-day. It also gave an NOAEL [3] of 15 mg/kg-day and an NOEL [3] of 15 mg/kg-day.
Work on `Nc1ccc(Cc2ccc(N)c(Cl)c2Cl)c(Cl)c1Cl` [Benzenamine, 4,4'-methylenebis(2,3-dichloro-] yielded an NOEL (short-term, duration: 28 days, gavage, M/F, Sprague-Dawley, Deaths + Hematology: WBC increase + Blood Chemistry: Alpha 1-globirin, level decrease, K increasemg/kg/ , TG increase/ + Relative Organ …) of 100 mg/kg-day.
Work on `ClCc1ccc(Cl)c(Cl)c1` [Benzene, 1,2-dichloro-4-(chloromethyl)-] yielded an NOEL (short-term, duration: 28 days, gavage, M/F, CD(SD), Deaths + Urinalysis: Volume, urinary cast increase, Epithelial cell increase + Absolute Organ Weight: Kidney increase, Liver increase + …) of under 10 mg/kg-day.
`FC(F)(F)c1cccc(C(F)(F)F)c1` [Benzene, 1,3-bis(trifluoromethyl)-] was tested, and the NOAEL [4] was 150 mg/kg-day and the NOEL [4] was under 40 mg/kg-day.
In the case of `Cc1cc(Cl)ccc1Cl` [Benzene, 1,4-dichloro-2-methyl-], the NOEL (subchronic, gavage, M, Sprague-Dawley, Clinical Observation: White turbid urine Salivation + Absolute Organ Weight: Kidney increase + Relative Organ Weight: Kidney increase, R) is reported as 30 mg/kg-day.
In the case of `O=C(OOC(=O)c1ccccc1)c1ccccc1` [Benzoyl peroxide], the NOAEL (short-term, duration: 28 days, gavage, M, Sprague-Dawley, Absolute Organ Weight: Testes decrease + Relative Organ Weight: Testes decrease, Epididymis decrease + Histopathology: Testes: Degeneration) is reported as 500 mg/kg-day.
`CCCCCCCC[N+](C)(C)Cc1ccccc1.[Cl-]` [Benzyldimethyloctylammonium chloride] was tested, and the NOAEL [5] was 15 mg/kg-day and the NOEL [5] was 15 mg/kg-day.
`C[N+](C)(C)CC(=O)[O-]` [Betaine] was tested, and the NOEL (subchronic, diet, M/F, Sprague-Dawley, Food Consumption: decrease + Urinalysis: Urine volume increase,pH decrease + Hematology: Plt increase, Fib increase + Blood Chemistry: Alp …) was under 1%.
With `COc1ccc(CCNCC(O)COc2cccc(C)c2)cc1OC.Cl` (stereo not given) [Bevantolol hydrochloride] the NOEL (chronic, duration: 91 days, gavage, M/F, CD, Deaths + Clinical Observation: Salivation Sedation Ptosis Prone position Lateral position Crouching position Convulsion Incontinence of …) was 60 mg/kg-day.
`ClC(COCC(Cl)C(Cl)(Cl)Cl)C(Cl)(Cl)Cl` (stereo not given) [Bis(2,3,3,3-tetrachloropropyl) ether] was tested, and the NOEL (subchronic, gavage, M/F, Wistar, Clinical Observation: Lethargy + Body Weight Changes: decrease + Urinalysis: Ketone body increase, TP increase + Hematology: Hgb decrease, …) was 40 mg/kg-day.
Compound `CCC[CH2][Sn]([Cl])([Cl])[Cl]` [Butyltin trichloride] has an NOAEL (subchronic, duration: 13 weeks, diet, M/F, Wistar, Urinalysis: pH increase + Hematology: WBC increase, Lymph increase + Blood Chemistry: ALP increase, ASAT increase, GGT increase, A/G …) of 144 mg/kg-day.
`COc1cc(-c2ccc(N=Nc3c(S(=O)(=O)[O-])cc4cc(S(=O)(=O)[O-])cc(N)c4c3O)c(OC)c2)ccc1N=Nc1c(S(=O)(=O)[O-])cc2cc(S(=O)(=O)[O-])cc(N)c2c1O.[Na+].[Na+].[Na+].[Na+]` [C.I. Direct Blue 15] was tested, and the NOEL (subchronic, duration: 13 weeks, drinking water, F, Fischer 344, Deaths + Body Weight Changes: decrease + Water Consumption: decrease + Absolute Organ Weight: Kidney increase + Relative Organ Weight: …) was 380 mg/kg-day and the NOEL (subchronic, duration: 13 weeks, drinking water, M, Fischer 344, Deaths + Body Weight Changes: decrease + Water Consumption: decrease + Absolute Organ Weight: Kidney increase + Relative Organ Weight: …) was under 190 mg/kg-day.
`Nc1cc(S(=O)(=O)[O-])cc2cc(S(=O)(=O)[O-])c(N=Nc3ccc(-c4ccc(N=Nc5c(S(=O)(=O)[O-])cc6cc(S(=O)(=O)[O-])cc(N)c6c5[O-])c([O-])c4)cc3[O-])c([O-])c12.[Cu+2].[Cu+2].[Na+].[Na+].[Na+].[Na+]` [C.I. Direct Blue 218] gave an NOEL (subchronic, duration: 13 weeks, diet, F, Fischer 344, Body Weight Changes: decrease + Food Consumption: decrease + Hematology: Hct decrease, Hgb decrease + Blood Chemistry: ALT increase, , SDH …) of 200 mg/kg-day and an NOEL (subchronic, duration: 13 weeks, diet, M/F, Fischer 344, Body Weight Changes: decrease + Food Consumption: decrease + Hematology: Hct decrease, Hgb decrease + Blood Chemistry: ALT increase, , SDH …) of under 288 mg/kg-day.
`O=C(O)C1C(C(=O)O)C2(Cl)C(Cl)=C(Cl)C1(Cl)C2(Cl)Cl` (stereo not given) [Chlorendic acid] showed an NOEL (subchronic, duration: 13 weeks, diet, M/F, Fischer 344, Body Weight Changes: decrease + Histopathology: Liver-Cytomegaly Liver/bile duct -Hyperplasia Liver-Mitotic alteration) of under 59.5 mg/kg-day.
`[Cu+2].[O-]n1ccccc1=S.[O-]n1ccccc1=S` [Copper Omadine] showed an NOEL (short-term, duration: 28 days, gavage, M/F, Deaths + Clinical Observation: Ataxic gait Dragging of hindlimbs Emaciation + Body Weight Changes: decrease + Food Consumption: decrease + …) of 2.5 mg/kg-day.
`CC=CC(=O)N(CC)c1ccccc1C` [Crotamiton] gave an NOEL (short-term, duration: 28 days, gavage, F, Sprague-Dawley, Clinical Observation: Salivation + Body Weight Changes: Weight gain decrease, increase + Food Consumption: increase + Urinalysis: Occult …) of 60 mg/kg-day and an NOEL (short-term, duration: 28 days, gavage, M, Sprague-Dawley, Clinical Observation: Salivation + Body Weight Changes: Weight gain decrease, increase + Food Consumption: increase + Urinalysis: Occult …) of 12 mg/kg-day.
`CC(C)c1ccc(N)cc1` [Cumidine] was tested, and the NOEL (subchronic, gavage, M, Sprague-Dawley, Clinical Observation: Anemia in eyes + Hematology: Met-Hgb increase, Hct decrease, Hgb decrease, RBC decrease, MCV increase, MCH increase, …) was 6 mg/kg-day.
`O=C1CCCCC1C1=CCCCC1` (stereo not given) [Cyclohexanone, 2-(1-cyclohexen-1-yl)-] showed an NOEL (subchronic, gavage, M, Sprague-Dawley, Clinical Observation: Salivation + Body Weight Changes: decrease + Blood Chemistry: gamma-GTP increase, TP increase, Alb increase, T-Cho …) of 40 mg/kg-day.
Work on `COC(=O)CC(=O)OC` [Dimethyl malonate] yielded an NOAEL (subchronic, gavage, M, Wistar, Histopathology: Liver: Hypertrophy, hepatocyte) of 300 mg/kg-day.
`CN(C)CCCCl.Cl` [Dimethylaminopropyl chloride hydrochloride] showed an NOEL (subchronic, drinking water, M/F, Fischer 344, Deaths + Body Weight Changes: decrease + Blood Chemistry: TP decrease Alb decrease Bile acid increase + Histopathology: Nose-Goblet cell, …) of under 6.25 mg/kg-day.
`CC(CO)OC(C)CO.CC(O)COCC(C)O` (stereo not given) [Dipropylene glycol] gave an NOAEL [6] of 1000 mg/kg-day and an NOEL [6] of 200 mg/kg-day.
`CC(C)C[C@H]1C(=O)N2CCC[C@H]2[C@]2(O)O[C@](NC(=O)[C@@H]3C=C4c5cccc6[nH]cc(c56)C[C@H]4N(C)C3)(C(C)C)C(=O)N12` [Ergocryptine] was tested, and the NOEL (subchronic, diet, F, Hsd/Ola/SD, Clinical Observation: Hyperkinesia, dirty hair Hunchback position Aggression + Body Weight Changes: decrease + Food Consumption: decrease + …) was 0.36 mg/kg-day and the NOEL (subchronic, diet, M/F, Hsd/Ola/SD, Clinical Observation: Hyperkinesia, dirty hair Hunchback position Aggression + Body Weight Changes: decrease + Food Consumption: decrease + …) was 4 mg/kg-day.
With `CCOCCOCCOC` [Ethane, 1-ethoxy-2-(2-methoxyethoxy)-] the NOAEL (subchronic, duration: 42 days, gavage, M, CD(SD), Clinical Observation: Decrease in locomotor activity Salivation (transient) + Food Consumption: decrease + Urinalysis: K decrease, Cl …) was 62.5 mg/kg-day.
`Nc1ccc2cc(S(=O)(=O)CCO)ccc2c1` [Ethanol, 2-[(6-amino-2-naphthalenyl)sulfonyl]-] was tested, and the NOEL (short-term, duration: 28 days, gavage, M/F, Body Weight Changes: Weight gain decrease + Urinalysis: pH decrease(slight) + Hematology: RBC decrease, RET increase, PT increase + Absolute…) was 15 mg/kg-day.
`Nc1nc(N)nc(-c2cc(Cl)ccc2Cl)n1.O=C(O)/C=C\C(=O)O` [Irsogladine maleate] showed an NOEL (chronic, duration: 91 days, gavage, M/F, Sprague-Dawley, Deaths + Clinical Observation: Piloerection Salivation Locomotor activity decrease, Decrease in reactivity Soiled fur Brownish urine Soiled …) of 3 mg/kg-day.
Compound `O=C(O)CCCC/C=C(\c1ccccc1)c1cccnc1` [Isbogrel] has an NOAEL (subchronic, gavage, M/F, CD, Clinical Observation: Salivation + Hematology: RBC decrease, HCT decrease, HGB decrease + Blood Chemistry: Bil increase, GLUC decrease, TP …) of under 100 mg/kg-day.
With `CC(C)CCO` [Isopentyl alcohol] the NOAEL [7] was 1000 mg/kg-day, the NOEL [7] was 1000 mg/kg-day and the NOAEL [8] was 500 mg/kg-day. It also gave an NOEL [8] of 500 mg/kg-day.
For `CC1(C)CC(N)CC(C)(CN)C1` (stereo not given) [Isophorone diamine], the NOAEL (subchronic, duration: 90 days, drinking water, M/F, Wistar, Body Weight Changes: Weight gain decrease + Food Consumption: decrease + Water Consumption: decrease + Absolute Organ Weight: Kidney …) was 60 mg/kg-day.
In the case of `CC(=O)N1CCN(c2ccc(OC[C@@H]3CO[C@@](Cn4ccnc4)(c4ccc(Cl)cc4Cl)O3)cc2)CC1` [Ketoconazole], the NOEL (short-term, duration: 28 days, gavage, M/F, Sprague-Dawley, Body Weight Changes: decrease + Blood Chemistry: ALT increase, Estrus cycle increase, T3 decrease, T4 decrease, TSH increase, Testosterone …) is reported as under 6.25 mg/kg-day.
Work on `CC1(C)Oc2ccc(C#N)cc2[C@@H](N2CCCC2=O)[C@@H]1O` [Levcromakalim] yielded an NOAEL (chronic, duration: 91 days, diet, M/F, CD, Body Weight Changes: increase.3 + Food Consumption: increase.3 + Water Consumption: increase + Urinalysis: Volume increase Osmolality …) of 0.03 mg/kg-day.
Work on `CCCCCC1C(=O)CCC1CC(=O)OC` (stereo not given) [Methyl dihydrojasmonate] yielded an NOAEL [9] of 100 mg/kg-day and an NOEL [9] of 100 mg/kg-day.
In the case of `CC1CCCCC1` [Methylcyclohexane], the LOEL [10] is reported as 250 mg/kg-day and the NOEL [10] is reported as 62.5 mg/kg-day.
For `CC(C)CCCCCOC(=O)C[S][Sn]([CH3])([S]CC(=O)OCCCCCC(C)C)[S]CC(=O)OCCCCCC(C)C` [Methyltin tris(isooctyl mercaptoacetate)], the NOAEL (subchronic, duration: 90 days, diet, M, Wistar, Blood Chemistry: BUN increase + Relative Organ Weight: Thymus increase, Kidney increase + Histopathology: Kidney: Dilatation, tubule, cystic…) was 48 mg/kg-day.
